According to article PMC9696974 (Pharmaceutics, 2022):
Like-named read-outs stand apart in the source and are kept apart here.

Legend:
[1] = test system: poly dAdT-poly dAdT (AT-DNA, p(dAdT)2) (DNA, polymer) AT; assay: UV thermal denaturation at 260 nm; conditions: Na+ (sodium cacodylate, I = 50 mM); pH 7.0; r = [compound]/[polynucleotide] = 0.2; error ± 0.5 °C; per base
A549 cells = assay: Mitochondrial ROS (MitoSOX Red); format: cell-based, human; conditions: A549, 1 µM plus UV irradiation, vs DMSO and 1M alone
Description: For measuring mitochondrial ROS, A549 cells were treated with 1 μM of the respective compound and incubated for 90 min (37 °C, 5% CO2), allowing the compound to enter to cells. Mitochondrial superoxide production was assessed with MitoSOX Red reagent (Thermo Fisher Scientific, Waltham, MA). The cells were washed with PBS and trypsinized, and then kept on ice unless otherwise specified. Cells were distributed into small tubes (3 × 10^5 cells per tube) and resuspended in 5 µM MitoSOX solution prepared in PBS. The cells were incubated on a thermomixer for 30 min at 37 °C, with shaking (300 rpm), in the dark, followed by two washes with PBS. Then, cells dyed with MitoSOX were re-suspended in 400 µL of PBS and distributed into black 96-well plates, 120 µL per well (in triplicate). A Tecan Infinite 200 fluorescence microplate reader with 485/520 and 520/590 nm excitation/emission wavelengths was used to measure MitoSOX fluorescence.

ct-DNA = test system: ct-DNA; parameters: method as in PMID 33231335; conditions: I = 50 mM, cited from earlier work
Solubility in water = format: physicochemical
[2] = pKa from pH dependence of UV/vis spectrum; format: physicochemical; conditions: water (0.001 M HCl in miliQ water, titrated with NaOH), UV/vis spectra vs pH in water, c = 2.0 × 10^−5 M

SMILES: C[n+]1ccc(-c2cc3ccc4cccc5ccc(c2)c3c45)cc1 [1M, 2-para-N-methylpyridinium pyrene]
- ∆Tm [1]: 8 °C
- mtROS levels (MitoSOX Red) (A549 cells): significantly increased mtROS levels
- ∆Tm ct-DNA (ct-DNA; r = 0.2, pH 7.0, sodium cacodylate buffer): ^c 2 °C
- ∆Tm ct-DNA (ct-DNA; r = 0.3, pH 7.0, sodium cacodylate buffer): ^c 2 °C

SMILES: C[n+]1ccc(-c2cc3ccc4cc(-c5cc[n+](C)cc5)cc5ccc(c2)c3c45)cc1 [2M]
- ∆Tm [1]: 31 °C

SMILES: c1cc2ccc3cc(-c4ccncc4)cc4ccc(c1)c2c34 [compound 1]
- Solubility in water (Solubility in water): poorly soluble in water
- pKa [2]: ~5
